Like-named read-outs stand apart in the source and are kept apart here.

Experiment in all cases: Ras GTP binding domain inhibition assay (Cy3-GTP/Cy5-GTP competition)
One experiment concerns the target T1, KRas G12D mutant (Homo sapiens, UniProt P01116, G12D).
T1 construct: fused on or other part: His tag, used for capture on nickel-coated plates
The settings on record: 20 μM. Summed up:
(§1)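 Compounds tested at 20 μM or in serial dilution for IC50 against nickel-captured His-tagged GTPase, 3 hours at room temperature, with or without His-Sos GEF added for last hour. Fluorescent GTP then added at 100 nM for 45 minutes; wells washed, bound label measured by fluorescence.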

In another experiment the test system is KRas wild type. On the set-up: species or system human. To be noted: 20 μM; for KRas wild type + SOS: % inh.: with SOS; for KRas wild type: % inh.: without SOS. Summed up:
as §1

Another experiment has as its system KRas G12C mutant. On the set-up: species or system human. The settings on record: 20 μM; for KRas G12C mutant + SOS: % inh.: with SOS; for KRas G12C mutant: % inh.: without SOS. The method in brief: as §1
The next experiment has as its system KRas Q61H mutant. On the set-up: species or system human. To be noted: 20 μM; for KRas Q61H mutant + SOS: % inh.: with SOS; for KRas Q61H mutant: % inh.: without SOS. The method in brief:
as §1

The mark [1] stands for this setting: with SOS, read-out: KRas G-12D mutant + SOS: % inh.
The mark [2] stands for this setting: without SOS, read-out: KRas G12D mutant: % inh.

Regarding `COc1ccc(Cn2cnc(-c3nc(O)c4scc(-c5ccccn5)c4n3)c2)cc1` [drawing 839], the inhibition at 20 µM on KRas G12D mutant (setting [1]) amounted to 0%. The inhibition at 20 µM at KRas G12D mutant (setting [2]) lay in the range of 1 to 25%. In addition, in the experiment with KRas wild type, the “KRas wild type + SOS: % inh.” value is reported as “A (1-25% inhibition)” and the “KRas wild type: % inh.” value is reported as “A (1-25% inhibition)”. Further, in the experiment on KRas G12C mutant, the “KRas G12C mutant + SOS: % inh.” value is “A (1-25% inhibition)” and the “KRas G12C mutant: % inh.” value is on record as “B (26-50% inhibition)”. For the same compound, in the experiment with KRas Q61H mutant, the “KRas Q61H mutant + SOS: % inh.” value is given as “A (1-25% inhibition)” and the “KRas Q61H mutant: % inh.” value is given as “B (26-50% inhibition)”.
With `Cc1cc(Cn2ccnc2-c2nc(O)c3scc(-c4ccccn4)c3n2)on1` [drawing 846], the inhibition at 20 µM at KRas G12D mutant (setting [1]) lay within 26 to 50%. For the same compound, at KRas G12D mutant (setting [2]), the inhibition at 20 µM was in the range of 51 to 75%. Moreover, in the experiment on KRas wild type, the “KRas wild type + SOS: % inh.” value is given as “B (26-50% inhibition)” and the “KRas wild type: % inh.” value is on record as “C (51-75% inhibition)”. In the experiment on KRas G12C mutant, the “KRas G12C mutant + SOS: % inh.” value is listed as “C (51-75% inhibition)” and the “KRas G12C mutant: % inh.” value is “B (26-50% inhibition)”. In the experiment with KRas Q61H mutant, the “KRas Q61H mutant + SOS: % inh.” value is listed as “C (51-75% inhibition)” and the “KRas Q61H mutant: % inh.” value is on record as “B (26-50% inhibition)”.
Take `Oc1nc(-c2cn(-c3ccccc3)cn2)nc2c(-c3ccccn3)csc12` [drawing 847]: the inhibition at 20 µM at KRas G12D mutant (setting [1]) lay in the range of 1 to 25%. Also, the inhibition at 20 µM at KRas G12D mutant (setting [2]) is 1 to 25%. In the experiment with KRas wild type, the “KRas wild type + SOS: % inh.” value is “A (1-25% inhibition)” and the “KRas wild type: % inh.” value is recorded as “A (1-25% inhibition)”. In the experiment with KRas G12C mutant, the “KRas G12C mutant + SOS: % inh.” value was “A (1-25% inhibition)” and the “KRas G12C mutant: % inh.” value is on record as 0 (0% inhibition). For the same compound, in the experiment with KRas Q61H mutant, the “KRas Q61H mutant + SOS: % inh.” value is reported as “A (1-25% inhibition)” and the “KRas Q61H mutant: % inh.” value was “B (26-50% inhibition)”.
Consider `Oc1nc(-c2cn3cccnc3n2)nc2c(-c3ccccn3)csc12` [drawing 848], for which the inhibition at 20 µM at KRas G12D mutant (setting [1]) was 1 to 25%. Moreover, the inhibition at 20 µM at KRas G12D mutant (setting [2]) lay within 1 to 25%. In the experiment with KRas wild type, the “KRas wild type + SOS: % inh.” value is “A (1-25% inhibition)” and the “KRas wild type: % inh.” value is reported as “A (1-25% inhibition)”. In the experiment with KRas G12C mutant, the “KRas G12C mutant + SOS: % inh.” value is recorded as “A (1-25% inhibition)” and the “KRas G12C mutant: % inh.” value is given as 0 (0% inhibition). Further, in the experiment on KRas Q61H mutant, the “KRas Q61H mutant + SOS: % inh.” value is “A (1-25% inhibition)” and the “KRas Q61H mutant: % inh.” value was “A (1-25% inhibition)”.
Consider `COC1CCN(c2nc(-c3nccn3C)nc3sc(-c4ccccc4Cl)c(-c4cscn4)c23)C1` (stereo not drawn) [drawing 849], for which, on KRas G12D mutant (setting [1]), the inhibition at 20 µM was 51 to 75%. At KRas G12D mutant (setting [2]), the inhibition at 20 µM was in the range of 51 to 75%. Moreover, in the experiment with KRas wild type, the “KRas wild type + SOS: % inh.” value is “C (51-75% inhibition)” and the “KRas wild type: % inh.” value is “C (51-75% inhibition)”. Further, in the experiment with KRas G12C mutant, the “KRas G12C mutant + SOS: % inh.” value is recorded as “C (51-75% inhibition)” and the “KRas G12C mutant: % inh.” value is on record as “B (26-50% inhibition)”. In the experiment on KRas Q61H mutant, the “KRas Q61H mutant + SOS: % inh.” value was “C (51-75% inhibition)” and the “KRas Q61H mutant: % inh.” value is on record as “B (26-50% inhibition)”.
Regarding `COc1cccc(Cn2ccnc2-c2nc(O)c3scc(-c4ccccn4)c3n2)c1` [drawing 850], the inhibition at 20 µM on KRas G12D mutant (setting [1]) was 51 to 75%. Besides, the inhibition at 20 µM on KRas G12D mutant (setting [2]) was 76 to 100%. For the same compound, in the experiment with KRas wild type, the “KRas wild type + SOS: % inh.” value is on record as “C (51-75% inhibition)” and the “KRas wild type: % inh.” value is listed as “C (51-75% inhibition)”. In addition, in the experiment with KRas G12C mutant, the “KRas G12C mutant + SOS: % inh.” value is given as “D (76-100% inhibition)” and the “KRas G12C mutant: % inh.” value is on record as “C (51-75% inhibition)”. Besides, in the experiment with KRas Q61H mutant, the “KRas Q61H mutant + SOS: % inh.” value is listed as “D (76-100% inhibition)” and the “KRas Q61H mutant: % inh.” value is listed as “C (51-75% inhibition)”.
With `Oc1nc(-c2nccn2Cc2ccccn2)nc2c(-c3ccccn3)csc12` [drawing 851], the inhibition at 20 µM on KRas G12D mutant (setting [1]) fell in the range of 51 to 75%. In addition, on KRas G12D mutant (setting [2]), the inhibition at 20 µM lay within 76 to 100%. Further, in the experiment on KRas wild type, the “KRas wild type + SOS: % inh.” value is “C (51-75% inhibition)” and the “KRas wild type: % inh.” value is recorded as “D (76-100% inhibition)”. Also, in the experiment on KRas G12C mutant, the “KRas G12C mutant + SOS: % inh.” value was “D (76-100% inhibition)” and the “KRas G12C mutant: % inh.” value was “D (76-100% inhibition)”. In addition, in the experiment on KRas Q61H mutant, the “KRas Q61H mutant + SOS: % inh.” value was “D (76-100% inhibition)” and the “KRas Q61H mutant: % inh.” value is recorded as “C (51-75% inhibition)”.
In the case of `COCCn1ccnc1-c1nc(O)c2scc(-c3ccccn3)c2n1` [drawing 852], the inhibition at 20 µM on KRas G12D mutant (setting [1]) was in the range of 51 to 75%. Also, the inhibition at 20 µM on KRas G12D mutant (setting [2]) lay in the range of 76 to 100%. Also, in the experiment on KRas wild type, the “KRas wild type + SOS: % inh.” value is “C (51-75% inhibition)” and the “KRas wild type: % inh.” value is “D (76-100% inhibition)”. In the experiment with KRas G12C mutant, the “KRas G12C mutant + SOS: % inh.” value was “D (76-100% inhibition)” and the “KRas G12C mutant: % inh.” value was “C (51-75% inhibition)”. Also, in the experiment on KRas Q61H mutant, the “KRas Q61H mutant + SOS: % inh.” value was “C (51-75% inhibition)” and the “KRas Q61H mutant: % inh.” value was “C (51-75% inhibition)”.
As to `Cn1ccnc1-c1nc(O)c2scc(-c3ccccn3)c2n1` [drawing 853], the inhibition at 20 µM on KRas G12D mutant (setting [1]) fell in the range of 51 to 75%. On KRas G12D mutant (setting [2]), the inhibition at 20 µM fell in the range of 76 to 100%. For the same compound, in the experiment on KRas wild type, the “KRas wild type + SOS: % inh.” value is “C (51-75% inhibition)” and the “KRas wild type: % inh.” value is reported as “D (76-100% inhibition)”. Also, in the experiment on KRas G12C mutant, the “KRas G12C mutant + SOS: % inh.” value is on record as “C (51-75% inhibition)” and the “KRas G12C mutant: % inh.” value is listed as “D (76-100% inhibition)”. Besides, in the experiment with KRas Q61H mutant, the “KRas Q61H mutant + SOS: % inh.” value is listed as “C (51-75% inhibition)” and the “KRas Q61H mutant: % inh.” value is “D (76-100% inhibition)”.

These data come from US20250296938A1, “Compounds that Interact with the Ras Superfamily for the Treatment of Cancers, Inflammatory Diseases, Rasopathies, and Fibrotic Disease” (SHY Therapeutics, LLC, priority 2018, published 2025).
